Laboratory results: patent US20260130395A1, “Water Dispersible Botanical Compositions” (Aquila Black Limited, priority 2021, published 2026)

Assay: Stability of cannabinoid compounds and Vitamin E components in Beverage 2 (AB Red) by LCMSMS
Assay type: physicochemical

In the case of `C=C(C)[C@@H]1CCC(C)=C[C@H]1c1c(O)cc(CCC)cc1O` [CBDV, cannabidivarin], the “Stability of Plant-Derived Cannabinoid Compounds in AB Red” value (shortened to “Stability”) (stored at 8° C., 0 days) is reported as 0.200 µg/mL, the “Stability” value (stored at 8° C., 1 days) is reported as 0.194 µg/mL and the “Stability” value (stored at 8° C., 2 days) is reported as 0.197 µg/mL. The “Stability” value (stored at 8° C., 3 days) was 0.199 µg/mL, the “Stability” value (stored at 8° C., 5 days) was 0.198 µg/mL and the “Stability” value (stored at 8° C., 8 days) was 0.198 µg/mL. For the same molecule, the “Stability” value (stored at 8° C., 9 days) was 0.201 µg/mL, the “Stability” value (stored at 8° C., 10 days) was 0.194 µg/mL and the “Stability” value (stored at 8° C., 11 days) was 0.195 µg/mL. For the same molecule, the “Stability” value (stored at 8° C., 12 days) was 0.198 µg/mL, the “Stability” value (stored at 8° C., 15 days) was 0.194 µg/mL and the “Stability” value (stored at 8° C., 16 days) was 0.195 µg/mL. The “Stability” value (stored at 8° C., 17 days) was 0.195 µg/mL, the “Stability” value (stored at 8° C., 18 days) was 0.195 µg/mL and the “Stability” value (stored at 8° C., 19 days) was 0.199 µg/mL. For the same molecule, the “Stability” value (stored at 8° C., 22 days) was 0.200 µg/mL, the “Stability” value (stored at 8° C., 23 days) was 0.194 µg/mL and the “Stability” value (stored at 8° C., 24 days) was 0.197 µg/mL. The “Stability” value (stored at 8° C., 25 days) was 0.199 µg/mL, the “Stability” value (stored at 8° C., 26 days) was 0.199 µg/mL and the “Stability” value (stored at 8° C., 29 days) was 0.197 µg/mL. The “Stability” value (stored at 8° C., 30 days) was 0.200 µg/mL, the “Stability” value (stored at 8° C., 60 days) was 0.199 µg/mL and the “Stability” value (stored at 8° C., 90 days) was 0.196 µg/mL. The “Stability” value (stored at 8° C., 120 days) was 0.193 µg/mL, the “Stability” value (stored at 8° C., 150 days) was 0.198 µg/mL and the “Stability” value (stored at 8° C., 180 days) was 0.192 µg/mL. For the same molecule, the “Stability” value (stored at 8° C., 210 days) was 0.193 µg/mL, the “Stability” value (stored at 8° C., 240 days) was 0.192 µg/mL and the “Stability” value (stored at 8° C., 270 days) was 0.195 µg/mL. The “Stability” value (stored at 8° C., 300 days) was 0.193 µg/mL, the “Stability” value (stored at 8° C., 330 days) was 0.191 µg/mL and the “Stability” value (stored at 8° C., 360 days) was 0.193 µg/mL. The “Stability” value (stored at 8° C., 390 days) was 0.194 µg/mL, the “Stability” value (stored at 8° C., 420 days) was 0.193 µg/mL and the “Stability” value (stored at 8° C., 450 days) was 0.195 µg/mL. For the same molecule, the “Stability” value (stored at 8° C., 480 days) was 0.190 µg/mL, the “Stability” value (stored at 8° C., 510 days) was 0.184 µg/mL and the “Stability” value (stored at 8° C., 540 days) was 0.185 µg/mL. For the same molecule, the “Stability” value (stored at 8° C., 570 days) was 0.183 µg/mL, the “Stability” value (stored at 21-25° C., 0 days) was 0.20 µg/mL and the “Stability” value (stored at 21-25° C., 1 days) was 0.20 µg/mL. For the same molecule, the “Stability” value (stored at 21-25° C., 2 days) was 0.20 µg/mL, the “Stability” value (stored at 21-25° C., 3 days) was 0.20 µg/mL and the “Stability” value (stored at 21-25° C., 5 days) was 0.19 µg/mL. For the same molecule, the “Stability” value (stored at 21-25° C., 8 days) was 0.20 µg/mL, the “Stability” value (stored at 21-25° C., 9 days) was 0.20 µg/mL and the “Stability” value (stored at 21-25° C., 10 days) was 0.20 µg/mL. The “Stability” value (stored at 21-25° C., 11 days) was 0.20 µg/mL, the “Stability” value (stored at 21-25° C., 12 days) was 0.20 µg/mL and the “Stability” value (stored at 21-25° C., 15 days) was 0.20 µg/mL. The “Stability” value (stored at 21-25° C., 16 days) was 0.19 µg/mL, the “Stability” value (stored at 21-25° C., 17 days) was 0.20 µg/mL and the “Stability” value (stored at 21-25° C., 18 days) was 0.20 µg/mL. The “Stability” value (stored at 21-25° C., 19 days) was 0.19 µg/mL, the “Stability” value (stored at 21-25° C., 22 days) was 0.20 µg/mL and the “Stability” value (stored at 21-25° C., 23 days) was 0.19 µg/mL. The “Stability” value (stored at 21-25° C., 24 days) was 0.19 µg/mL, the “Stability” value (stored at 21-25° C., 25 days) was 0.19 µg/mL and the “Stability” value (stored at 21-25° C., 26 days) was 0.19 µg/mL. For the same molecule, the “Stability” value (stored at 21-25° C., 29 days) was 0.19 µg/mL, the “Stability” value (stored at 21-25° C., 30 days) was 0.20 µg/mL and the “Stability” value (stored at 21-25° C., 60 days) was 0.20 µg/mL. For the same molecule, the “Stability” value (stored at 21-25° C., 90 days) was 0.19 µg/mL, the “Stability” value (stored at 21-25° C., 120 days) was 0.19 µg/mL and the “Stability” value (stored at 21-25° C., 150 days) was 0.20 µg/mL. For the same molecule, the “Stability” value (stored at 21-25° C., 180 days) was 0.20 µg/mL, the “Stability” value (stored at 21-25° C., 210 days) was 0.19 µg/mL and the “Stability” value (stored at 21-25° C., 240 days) was 0.20 µg/mL. For the same molecule, the “Stability” value (stored at 21-25° C., 270 days) was 0.20 µg/mL, the “Stability” value (stored at 21-25° C., 300 days) was 0.19 µg/mL and the “Stability” value (stored at 21-25° C., 330 days) was 0.19 µg/mL. For the same molecule, the “Stability” value (stored at 21-25° C., 360 days) was 0.19 µg/mL, the “Stability” value (stored at 21-25° C., 390 days) was 0.19 µg/mL and the “Stability” value (stored at 21-25° C., 420 days) was 0.19 µg/mL. For the same molecule, the “Stability” value (stored at 21-25° C., 450 days) was 0.19 µg/mL, the “Stability” value (stored at 21-25° C., 480 days) was 0.19 µg/mL and the “Stability” value (stored at 21-25° C., 510 days) was 0.19 µg/mL. The “Stability” value (stored at 21-25° C., 540 days) was 0.19 µg/mL and the “Stability” value (stored at 21-25° C., 570 days) was 0.18 µg/mL.
